In patent US20220249637A1, “COMBINATION THERAPY OF A CELL-MEDIATED CYTOTOXIC THERAPY AND AN INHIBITOR OF A PROSURVIVAL BCL2 FAMILY PROTEIN” (Juno Therapeutics, Inc., priority 2019, published 2022):

Key:
[1] = tested on: JeKo-1 mantle cell lymphoma cells; assay: JeKo-1 murine model of mantle cell lymphoma; format: in vivo, NOD scid gamma (NSG) mice
Protocol: NOD scid gamma (NSG) mice were injected intravenously with 2×10^6 JeKo-1 mantle cell lymphoma cells (Day −7) and treated daily with 12.5, 25, 50, or 100 mg/kg of the exemplary BCL2 inhibitor venetoclax for 21 days (Day 0 through Day 21). Tumor burden (FIG. 11A) and body weight (FIG. 11B) were assessed over the course of treatment.
To determine the effects of venetoclax on anti-CD19 CAR T cells in a venetoclax-resistant murine model of MCL, NSG mice were injected intravenously with 2×10^6 JeKo-1 cells on Day −7, and then treated with intravenous infusions of 1×10^6 anti-CD19 CAR T cells, generated substantially as described in previous Example, on Day −1 and Day 0. Venetoclax was administered daily for 21 days (Day 0 to Day 21) at 6.25, 25, or 100 mg/kg. As a control, a subset of mice were only treated with venetoclax. Tumor burden (FIG. 12A), survival (FIGS. 12B and 12C), and CAR T cell number (FIG. 13) were assessed.

Granta-519 = assay: NucLight Red target cell killing by live cell imaging; format: cell-based
Protocol: (§1) Anti-CD19 CAR-expressing T cell compositions were generated as described in Example 1 and were cultured with a CD19-expressing lymphoma target cell lines, either SUDHL6, WSU-DLCL2, or Granta-519 at an E:T ratio of 2.5:1. The co-cultures were carried out in the presence of 20 nM or 200 nM of the exemplary BCL2 inhibitor, venetoclax. As controls, target tumor cell lines were incubated only in the presence of the inhibitor or the anti-CD19 CAR T cells. Target cells were labeled with NucLight Red (NLR) to permit tracking of target cells by microscopy and target cell killing was monitored by the loss of fluorescent signal over time, substantially as described in Example 1.
In a further experiment, anti-CD19 CAR-expressing T cell compositions, generated as described above, were cultured with the Granta-519 CD19-expressing lymphoma target cell line. Granta-519 cells were engineered with a lentiviral reagent to express NucLight Red (NLR) to permit tracking of target cells by microscopy. […] The anti-CD19 CAR T cells were provided in the co-cultures at the suboptimal dose, and the co-cultures were carried out in the presence of 0, 0.01, 0.1, or 1 μM of the exemplary BCL2 inhibitor venetoclax. For comparison, target tumor cell lines were incubated only in the presence of 0, 0.01, 0.1, or 1 μM of the inhibitor. Red target cell counts were enumerated by live cell imaging and tracked over time.

human plasma proteins = conditions: cited from earlier work
RL spheroids = assay: RL spheroid 3D tumor model, co-culture for 9 days; format: cell-based
Protocol: The resistance of the RL cell line to CD19-directed CAR T cells was further assessed in a 3D tumor model. An anti-CD19 CAR-expressing T cell composition was generated from a human adult donor, substantially as described in Example 1. RL tumor cells engineered to express NLR were allowed to form spheroids for 72 hours, then co-cultured for 9 days with the anti-CD19 CAR T cells at an E:T ratio of 1:1. A subtherapeutic concentration of the exemplary BCL2 inhibitor venetoclax (0.1 μM) was added at the beginning of co-culture, and tumor volume was measured over time (FIG. 5B).
In a related experiment, spheroids were generated from CD19-expressing RL cells as described, and co-cultured for 9 days with anti-CD19 CAR T cells and increasing concentrations of venetoclax (0.01 μM, 0.1 μM, or 1.0 μM), or with only corresponding concentrations of venetoclax.

SUDHL6 = assay: NucLight Red target cell killing by live cell imaging; format: cell-based; conditions: venetoclax alone, 200 nM
Protocol: (§2) The cytolytic activity of anti-CD19 CAR T cells against two additional CD19-expressing lymphoma target cells lines, SUDHL6 and WSU-DLCL2, was assessed and compared to cytolytic activity against K562.CD19 target cells. Target cells were engineered with a lentiviral reagent to express NucLight Red (NLR) to permit tracking of target cells by microscopy. Anti-CD19 CAR-expressing T cell compositions were generated from two human adult donors, substantially as described above. Target cells were co-cultured with the donor-derived CAR T cell compositions for up to 120 hours at an E:T ratio of 2.5:1. Red target cell counts were tracked over time by live cell imaging and counts were normalized to the number of red target cells at baseline to determine the fold-change in target cells over time.
as §1

WSU-DLCL2 = assay: as above; format: cell-based
Protocol: as §2, §1

CD3+CAR+ T cells = assay: Co-culture of tumor cells and CAR T cells, venetoclax added at initiation or 24, 48 or 72 hours later (Example 9): CAR T cell number; format: cell-based
Protocol: FIGS. 14A and 14B show the number of CD3+CAR+ T cells and RL target cells, respectively, following a 6-day co-culture. Various concentrations of an exemplary BCL2 inhibitor were provided in the co-culture at its initiation, or 24, 48, or 72 hours after the initiation of co-culture.
Thus, in some cases, the cytotoic effects of a BCL2 inhibitor, e.g. venetoclax, and a T cell therapy (e.g. CAR T cells) may be synergistic to result in cell death of cells otherwise resistant to treatment with the T cell therapy alone. In some cases, administration of the inhibitor, e.g. venetoclax, may sensitize otherwise resistant cancer cells to CAR T cell-mediated killing when it is administered within or at about 7 days after administration of the cell therapy.

anti-CD19 CAR T cells = assay: Effect of serum concentration on venetoclax IC50 against CAR T cells; format: cell-based; conditions: 5%, 10% or 20% serum
Protocol: Thus, to determine whether serum concentration may modulate the effects of venetoclax on CAR T cells, anti-CD19 CAR T cells were cultured in the presence of 5%, 10%, or 20% serum and treated with increasing concentrations of venetoclax.

[2] = co-culture with anti-CD19 CAR T cells E:T 2.5:1, 20 or 200 nM venetoclax
[3] = venetoclax alone, 20 nM or 200 nM

With `CC1(C)CCC(CN2CCN(c3ccc(C(=O)NS(=O)(=O)c4ccc(NCC5CCOCC5)c([N+](=O)[O-])c4)c(Oc4cnc5[nH]ccc5c4)c3)CC2)=C(c2ccc(Cl)cc2)C1` [venetoclax] as the compound, how does the tumor volume ([1]; venetoclax 6.25, 25 or 100 mg/kg daily in combination with CAR T cells, vs untreated and venetoclax-only mice) read?
The tumor volume was “reduced tumor volume at all measured time points”.

And the tumor burden ([1]; venetoclax alone, 6.25, 25 or 100 mg/kg daily for 21 days)?
The tumor burden was “increased similarly in untreated mice and mice treated with venetoclax alone”.

And the “tumor burden (bioluminescence imaging)” value ([1]; venetoclax alone, 12.5, 25, 50 or 100 mg/kg daily for 21 days)?
Its value is “resistant to treatment with venetoclax alone, regardless of dose level”.

And the “CD19-directed CAR T cell killing” value (Granta-519; [2])?
Its value is “enhanced”.

What about the target cell number (Granta-519; venetoclax alone, 0.01 μM) of the same compound?
Its target cell number is “did not substantially impact target cell number”.

What about the tumor cell killing (Granta-519; [3]) of the same compound?
Its tumor cell killing is “did not substantially impact tumor cell killing”.

And the target cell number (Granta-519; venetoclax alone, 0.1 μM and 1.0 μM)?
The target cell number was “modest effect on target cell number”.

And the target cell number (Granta-519; with anti-CD19 CAR T cells E:T 1:1, 0.01 μM venetoclax, compared to 0.01 μM inhibitor only)?
Its target cell number is “demonstrated a decrease in the number of target cells”.

And the “target cell number / CAR T cell killing” value (Granta-519; with anti-CD19 CAR T cells E:T 1:1, 0.1 μM and 1.0 μM venetoclax)?
The value was “even greater CD19-directed CAR T cell killing”.

What about the plasma protein binding (human plasma proteins) of the same compound?
The plasma protein binding was “can bind human plasma proteins”.

And the “apoptosis of tumor cells” value (RL spheroids; combination of venetoclax and anti-CD19 CAR T cells (data not shown))?
Its value is “induce apoptosis of tumor cells”.

And the tumor size (RL spheroids; day 9, venetoclax 0.01, 0.1 or 1.0 μM)?
Its tumor size is “larger concentrations of venetoclax resulted in larger decreases in tumor size”.

And the “size of RL spheroids” value (RL spheroids; day 9, with anti-CD19 CAR T cells, venetoclax 0.01, 0.1 or 1.0 μM, compared to venetoclax only)?
Its value is “decreased substantially more”.

And the tumor volume (RL spheroids; with anti-CD19 CAR T cells E:T 1:1, 0.1 μM venetoclax, 9 days)?
The tumor volume was “resulted in decreased tumor volume”.

What about the tumor cell killing (SUDHL6) of the same compound?
Its tumor cell killing is “killing of the sensitive tumor cell line SUDHL6 was achieved”.

What about the “CD19-directed CAR T cell killing” value (WSU-DLCL2; [2]) of the same compound?
The value was “enhanced”.

And the tumor cell killing (WSU-DLCL2; [3])?
Its tumor cell killing is “did not substantially impact tumor cell killing”.

What about the “deleterious effects on CAR T cells” value (CD3+CAR+ T cells; administered when activation-induced cell death of CAR T cells has peaked (e.g. 2-7 days after CAR T cells), Example 9) of the same compound?
The value was “deleterious effects on CAR T cells not observed”.

What about the “deleterious effects on the CAR T cells” value (CD3+CAR+ T cells; therapeutic dose administered 48 or 72 hours after initiation of co-culture) of the same compound?
The value was “without deleterious effects on the CAR T cells being observed”.

And the “CAR-T cell numbers and activity” value (CD3+CAR+ T cells; therapeutic dose given concurrently or at 24 hours after initiation of co-culture)?
The value was “reduced CAR-T cell numbers and activity”.

What about the “IC50 against anti-CD19 CAR T cells” value (anti-CD19 CAR T cells) of the same compound?
The value was “increase with increasing concentrations of serum”.
